Assay: xn = mol fraction of the nth substance listed
Details: 100 kPa

Cc1ccccc1 + CCCC[n+]1ccccc1.O=S(=O)([N-]S(=O)(=O)C(F)(F)F)C(F)(F)F
x1 = 1
Details | viscosity [mPa·s]
293.15 K | 0.598
298.15 K | 0.569
303.15 K | 0.539
308.15 K | 0.509
313.15 K | 0.485

CCCCCC[N+]1(C)CCCC1.O=S(=O)([N-]S(=O)(=O)C(F)(F)F)C(F)(F)F + Cc1ccccc1
viscosity [mPa·s]
Details | x2 = 0 | x2 = 0.0942 | x2 = 0.1943 | x2 = 0.29 | x2 = 0.3938 | x2 = 0.493 | x2 = 0.5961 | x2 = 0.6986 | x2 = 0.7993
293.15 K | 136.2 | 103.1 | 77.3 | 55.6 | – | 24.39 | 14.74 | 8.36 | –
298.15 K | 102.8 | 79.3 | 61.2 | 44.91 | 30.92 | 20.68 | 12.89 | 7.61 | 3.838
303.15 K | 79.6 | 62.3 | 48 | 36.7 | 25.95 | 17.85 | – | 6.93 | 3.477
308.15 K | 63.1 | 50.2 | 39.6 | – | 22.17 | 15.66 | 10.64 | 6.49 | –
313.15 K | – | 40.96 | 32.72 | 25.67 | 19.3 | 14.05 | 9.54 | 5.88 | 2.944

Cc1ccccc1 + CCCCCC[N+]1(C)CCCC1.O=S(=O)([N-]S(=O)(=O)C(F)(F)F)C(F)(F)F
x1 = 1
Details | viscosity [mPa·s]
293.15 K | 0.598
298.15 K | 0.569
303.15 K | 0.539
313.15 K | 0.495

CCCC[N+]1(C)CCCC1.O=S(=O)([N-]S(=O)(=O)C(F)(F)F)C(F)(F)F + Cc1ccccc1
viscosity [mPa·s]
Details | x2 = 0 | x2 = 0.1093 | x2 = 0.1978 | x2 = 0.3041 | x2 = 0.3965 | x2 = 0.5054 | x2 = 0.6027 | x2 = 0.7066
293.15 K | 90.2 | 66.9 | 51.5 | 36.61 | 26 | 17.04 | 11.02 | 6.26
298.15 K | – | 52.3 | 41.5 | 29.96 | 21.88 | – | – | 5.73
303.15 K | 56.2 | 42.87 | 34.07 | – | – | 13.06 | 9.11 | 5.28
308.15 K | 45.8 | 34.88 | 28.4 | 21.58 | 16.48 | 11.86 | 8.4 | 5.05
313.15 K | – | 29.43 | 24.08 | – | – | 10.63 | 7.58 | –

Cc1ccccc1 + CCCC[N+]1(C)CCCC1.O=S(=O)([N-]S(=O)(=O)C(F)(F)F)C(F)(F)F
x1 = 1
Details | viscosity [mPa·s]
293.15 K | 0.598
298.15 K | 0.569
303.15 K | 0.539
313.15 K | 0.485

CCCC[n+]1ccccc1.O=S(=O)([N-]S(=O)(=O)C(F)(F)F)C(F)(F)F + Cc1ccccc1
viscosity [mPa·s]
Details | x2 = 0 | x2 = 0.0994 | x2 = 0.2022 | x2 = 0.2939 | x2 = 0.3972 | x2 = 0.5025 | x2 = 0.6068 | x2 = 0.7033
293.15 K | 68.9 | 54.2 | 41.67 | 31.52 | – | 15.1 | – | 6.11
298.15 K | – | 42.92 | 33.54 | 25.9 | 19 | – | 9.09 | 5.53
303.15 K | 41.94 | 34.61 | 27.6 | – | 16.23 | 11.99 | 8.21 | 5.19
308.15 K | 33.75 | 28.44 | 22.89 | 18.36 | – | – | 7.48 | 4.96
313.15 K | 27.63 | 23.67 | 19.28 | 15.83 | – | 9.23 | – | 4.293

Reference: a compilation of properties of binary mixtures (doi:10.1016/j.molliq.2020.112754)
